Experimental data: patent publication US10604514B2, “6-(5-membered heteroaryl)isoquinolin-3-yl carboxamides and preparation and use thereof” (Samumed, LLC, priority 2017, dated 2020)
Where two headings read alike, the source gives them in different places.

Assays:
[1] = test system: Wnt activity (Sp5-Luc reporter in SW480 colon carcinoma cells); test: Wnt activity screening assay (Sp5-Luc reporter gene assay); type: cell-based, human; conditions: Homo sapiens; for EC50: Sp5-Luc reporter, SW480 cells, 36 to 48 hours
Summary of the method: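 SW480 cells stably carrying an Sp5 promoter (eight TCF/LEF sites)-firefly luciferase reporter were plated in DMEM with 1% FBS and treated with a 10-point, 1:3 dilution series from 10 μM (0.1% DMSO) for 36 to 48 h at 37° C. Luminescence was normalized to DMSO controls, and EC50 came from four-parameter nonlinear regression.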

GSK3β kinase = GSK3β kinase (Homo sapiens (Human), UniProt P49841); test: GSK3β kinase assay (Ser/Thr 09 peptide Z-lyte, FRET); type: biochemical; conditions: method text calls the value IC50;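 also: Coumarin/fluorescein emission ratio converted to percent phosphorylation against unphosphorylated (0%) and phosphorylated (100%) controls, 1 h compound incubation at room temperature, 11-point threefold dilutions from 10 µM, run in duplicate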
Chain of GSK3β kinase (P49841 whole entry): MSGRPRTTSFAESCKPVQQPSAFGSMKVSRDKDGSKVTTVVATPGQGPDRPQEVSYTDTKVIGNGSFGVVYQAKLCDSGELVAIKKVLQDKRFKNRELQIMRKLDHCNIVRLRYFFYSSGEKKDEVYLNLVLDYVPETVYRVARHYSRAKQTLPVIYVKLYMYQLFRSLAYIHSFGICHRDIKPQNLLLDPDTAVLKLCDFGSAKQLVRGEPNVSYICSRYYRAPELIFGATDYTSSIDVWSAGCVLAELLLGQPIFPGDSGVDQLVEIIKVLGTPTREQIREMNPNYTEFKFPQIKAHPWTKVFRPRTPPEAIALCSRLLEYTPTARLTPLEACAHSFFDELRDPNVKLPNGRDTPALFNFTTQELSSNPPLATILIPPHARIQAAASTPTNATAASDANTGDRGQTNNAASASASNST

[2] = test system: Tau phosphorylation at Ser396 (pSer396), SH-SY5Y cells; test: Tau phosphorylation at Ser396 (pSer396) in SH-SY5Y cells, ELISA/western blot; type: cell-based, human; conditions: Homo sapiens; SH-SY5Y cells, overnight (16-18 h); read-out: pSer396 Tau EC50;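 also: cell lysates probed for reduced Tau pSer396 via ELISA (colorimetric) or western blot (chemiluminescence), both with one shared pSer396 antibody, EC50 for lowering phosphorylation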
[3] = test system: SW480 colon carcinoma cells; test: Cell viability assay (CellTiter-Glo) in SW480 cells; type: cell-based, human; conditions: Homo sapiens; for EC50: 96 h, cell viability, SW480 cells, four days, CellTiter-Glo;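 as to all read-outs here: SW480 cells stably carrying an Sp5-luciferase TCF/LEF reporter, luminescent ATP signal as viability measure, DMSO-treated cells as control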
[4] = test system: LL29 cells (primary human fibroblasts derived from IPF patients), α-smooth muscle actin; test: Inhibition of fibrotic process: αSMA in TGF-β1-treated primary human fibroblasts from IPF patients (LL29 cells); type: cell-based; conditions: Homo sapiens, Fibroblast, 96 h; % αSMA-positive LL29 cells, TGF-β1 20 ng/mL, 4 days
Summary of the method: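 IPF-patient lung fibroblasts (LL29) were stimulated with TGF-β1 (20 ng/mL) in 1% FBS medium with compound (11-point 1:2 series, 0.1% DMSO) for 4 days at 37 °C. Fixed cells were immunostained for αSMA and imaged, excluding SYTOX-positive dead cells. The % αSMA-positive cells was normalized to TGF-β1/DMSO control wells.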

IL-6 = IL-6 inhibition in LPS-stimulated human peripheral blood mononuclear cells (HTRF); type: cell-based; conditions: Homo sapiens, PBMC; for EC50: IL-6, LPS-stimulated huPBMCs, HTRF; for inhibition at 10 µM: read-out: percent value in parentheses below EC50 >10
Summary of the method: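 Fresh human PBMCs (5000 cells/well, 1% FBS RPMI) preincubated with compound (10-point 1:3 series from 10 μM, 0.25% DMSO) 2 h at 37 °C, then stimulated with 50 ng/mL E. coli LPS for 22 h. IL-6 by HTRF 665/620 ratio; DMSO-normalized, EC50 from 4-parameter fit.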

DYRK1A kinase = DYRK1A kinase (Homo sapiens (Human), UniProt Q13627); test: DYRK1A kinase assay (Ser/Thr 18 peptide Z-lyte, FRET)
[5] = DYRK1A kinase, method text calls the value IC50
[6] = SW480, read-out: percent inhibition at 10 μM

| Compound | EC50 [1] | EC50 (GSK3β kinase) | EC50 [2] | EC50 [3] | EC50 (IL-6) | EC50 (DYRK1A kinase; [5]) | EC50 (DYRK1A kinase) | EC50 [4] | inhibition at 10 µM [1, 6] | inhibition at 10 µM (IL-6) | inhibition at 10 µM [3, 6] |
| --- | --- | --- | --- | --- | --- | --- | --- | --- | --- | --- | --- |
| Cn1cc(-c2cc(F)c3cnc(NC(=O)[C@H]4CC[C@H](N5CCOCC5)CC4)cc3c2)nn1 [Compound 56, trans-N-(8-Fluoro-6-(1-methyl-1H-1,2,3-triazol-4-yl)isoquinolin-3-yl)-4-morpholinocyclohexane-1-carboxamide] | 5350 nM | 9 nM | 92 nM | 6500 nM | 3370 nM | 4 nM |  | 285 nM |  |  |  |
| Cc1nnc(-c2cc(F)c3cnc(NC(=O)[C@H]4CC[C@H](N5CCOCC5)CC4)cc3c2)s1 [Compound 57, trans-N-(8-Fluoro-6-(5-methyl-1,3,4-thiadiazol-2-yl)isoquinolin-3-yl)-4-morpholinocyclohexane-1-carboxamide] | > 10000 nM | 16 nM | 136 nM | 4110 nM | > 10000 nM | 9 nM |  | 1170 nM | 40.1% | 6.1% |  |
| Cc1cn2c(n1)CN(C(=O)Nc1cc3cc(-c4cnc(C)o4)ccc3cn1)CC2 [Compound 59, 2-Methyl-N-(6-(2-methyloxazol-5-yl)isoquinolin-3-yl)-5,6-dihydroimidazo [1,2-a]pyrazine-7(8H)-carboxamide] | 4100 nM | 15 nM | 35 nM | 140 nM | 129 nM | 3 nM |  | 297 nM |  |  |  |
| CN(C)C1CCN(C(=O)Nc2cc3cc(-c4cnn(C)c4)ccc3cn2)CC1 [Compound 63, 4-(Dimethylamino)-N-(6-(1-methyl-1H-pyrazol-4-yl)isoquinolin-3-yl) piperidine-1-carboxamide] | 657 nM | 473 nM | 3100 nM | 2570 nM | 4800 nM | 17 nM |  | 1280 nM |  |  |  |
| CC(C)N1CCN(C(=O)Nc2cc3cc(-c4cnn(C)c4)ccc3cn2)CC1 [Compound 65, 4-isopropyl-N-(6-(1-methyl-1H-pyrazol-4-yl)isoquinolin-3-yl)piperazine-1-carboxamide] | 725 nM | 2840 nM | > 10000 nM | > 10000 nM | > 10000 nM | 70 nM |  | 2350 nM |  | 4.8% | 7.3% |
| [2H]c1c(NC(=O)C2CCN(C)CC2)ncc2ccc(-c3cnn(C)c3)cc12 [Compound 66, 1-Methyl-N-(6-(1-methyl-1H-pyrazol-4-yl)isoquinolin-3-yl-4-d)piperidine-4-carboxamide] | 1190 nM | 53 nM | 168 nM | 1220 nM | 997 nM |  | 3 nM | 160 nM |  |  |  |

Now from value to compound, other results behind:

| EC50 [1] | EC50 (GSK3β kinase) | EC50 [2] | EC50 [3] | EC50 (IL-6) | EC50 (DYRK1A kinase; [5]) | EC50 (DYRK1A kinase) | Compound | EC50 [4] | inhibition at 10 µM [1, 6] | inhibition at 10 µM (IL-6) | inhibition at 10 µM [3, 6] |
| --- | --- | --- | --- | --- | --- | --- | --- | --- | --- | --- | --- |
| 671 nM | 73 nM | 1100 nM | 4060 nM | > 10000 nM | 7 nM |  | Cn1cc(-c2ccc3cnc(NC(=O)N4CCOCC4)cc3c2)nn1 [Compound 60, N-(6-(1-Methyl-1H-1,2,3-triazol-4-yl)isoquinolin-3-yl)morpholine-4-carboxamide] | 4860 nM |  | 5.7% |  |
| 2640 nM | 68 nM | 1200 nM | 3640 nM | > 10000 nM | 7 nM |  | Cc1nnc(-c2ccc3cnc(NC(=O)N4CCN(C)CC4)cc3c2)s1 [Compound 62, 4-Methyl-N-(6-(5-methyl-1,3,4-thiadiazol-2-yl)isoquinolin-3-yl)piperazine-1-carboxamide] | 1230 nM |  | 8.5% |  |
| 434 nM | 530 nM | 2900 nM | 3530 nM | 4630 nM | 8 nM |  | Cn1cc(-c2ccc3cnc(NC(=O)N4CCOCC4)cc3c2)cn1 [Compound 64, N-(6-(1-Methyl-1H-pyrazol-4-yl)isoquinolin-3-yl)morpholine-4-carboxamide] | 683 nM |  |  |  |
